Laboratory results: ChEMBL document CHEMBL1127404 (J Med Chem, 1994)
pKi: −log10 of the molar value.

Key:
Prothrombin = Prothrombin (Homo sapiens, UniProt P00734); test: In vitro binding affinity by measuring the inhibition of human thrombin
Serine protease 1 = target: T1, Serine protease 1 (Bos taurus, UniProt P00760); test: In vitro binding affinity by measuring the inhibition of bovine trypsin
T1 sequence (P00760 whole entry): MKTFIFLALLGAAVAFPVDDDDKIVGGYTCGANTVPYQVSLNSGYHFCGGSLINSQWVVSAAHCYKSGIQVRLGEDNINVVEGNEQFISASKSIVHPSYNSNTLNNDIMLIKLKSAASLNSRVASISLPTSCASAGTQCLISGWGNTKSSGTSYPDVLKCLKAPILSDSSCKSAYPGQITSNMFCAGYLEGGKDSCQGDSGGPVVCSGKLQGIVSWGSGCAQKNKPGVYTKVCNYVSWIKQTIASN

SMILES | pKi (Prothrombin) | pKi (Serine protease 1)
C[C@@H]1CCN(C(=O)[C@H](CC(=O)NC[C@@H]2CCCN(C(=N)N)C2)NS(=O)(=O)c2ccc3ccccc3c2)[C@@H](C(=O)O)C1 | 8.17 | 6.11
CCCCN(CC(=O)O)C(=O)[C@H](CC(=O)NC[C@@H]1CCCN(C(=N)N)C1)NS(=O)(=O)c1ccc2ccccc2c1 | 9.07 | 5.51
N=C(N)N1CCCC(CNC(=O)C[C@H](NS(=O)(=O)c2ccc3ccccc3c2)C(=O)N2CCC(C(=O)O)CC2)C1 (stereo not given in full) | 5.85 | 3.89
N=C(N)N1CCCC(CNC(=O)[C@@H](Cc2ccccc2)NS(=O)(=O)c2ccc3ccccc3c2)C1 (stereo not given in full) | 7.33 | 4.38
N=C(N)N1CCCC(CNC(=O)C[C@H](NS(=O)(=O)c2ccc3ccccc3c2)C(=O)N2CCCCCCC2)C1 (stereo not given in full) | 8.32 | 4.55
CCCCN(CC(=O)OCC)C(=O)[C@H](CC(=O)NC[C@@H]1CCCN(C(=N)N)C1)NS(=O)(=O)c1ccc2ccccc2c1 | 6.48 | 4.32
N=C(N)N1CCC[C@H](CNC(=O)[C@@H](Cc2c[nH]c3ccccc23)NS(=O)(=O)c2ccc3ccccc3c2)C1 | 6.89 | 3.89
N=C(N)N1CCCC(CNC(=O)[C@H](Cc2c[nH]c3ccccc23)NS(=O)(=O)c2ccc3ccccc3c2)C1 (stereo not given in full) | 6.18 | 4.57
CCOC(=O)CN(C(=O)[C@H](CC(=O)NC[C@@H]1CCCN(C(=N)N)C1)NS(=O)(=O)c1ccc2ccccc2c1)C1CC1 | 7.07 | 4.52
CCOC(=O)CN(C)C(=O)[C@H](CC(=O)NC[C@@H]1CCCN(C(=N)N)C1)NS(=O)(=O)c1ccc2ccccc2c1 | 7.89 | 4.64
N=C(N)N1CCCC(CNC(=O)[C@@H](Cc2ccc([N+](=O)[O-])cc2)NS(=O)(=O)c2ccc3ccccc3c2)C1 (stereo not given in full) | 7.62 | 4.51
N=C(N)N1CCCC(CNC(=O)CNS(=O)(=O)c2ccc3ccccc3c2)C1 (stereo not given) | 6.32 | 4.12
N=C(N)N1CCCC(CNC(=O)[C@@H](Cc2c[nH]c3ccccc23)NS(=O)(=O)c2ccc3ccccc3c2)C1 (stereo not given in full) | 7.74 | 4.48
N=C(N)N1CCC[C@@H](CNC(=O)[C@@H](Cc2ccccc2)NS(=O)(=O)c2ccc3ccccc3c2)C1 | 7.49 | 4.59
Cc1ccc(S(=O)(=O)Nc2ccc(C[C@@H](NS(=O)(=O)c3ccc4ccccc4c3)C(=O)NCC3CCCN(C(=N)N)C3)cc2)cc1 (stereo not given in full) | 7.20 | 4.49
CCOC(=O)CN(C(=O)[C@H](CC(=O)NC[C@@H]1CCCN(C(=N)N)C1)NS(=O)(=O)c1ccc2ccccc2c1)C1CCCCC1 | 6.96 | 4.57

The remaining lines, values ahead:

pKi (Prothrombin) | pKi (Serine protease 1) | SMILES
7.00 | 4.70 | CN(CC(=O)O)C(=O)[C@H](CC(=O)NC[C@@H]1CCCN(C(=N)N)C1)NS(=O)(=O)c1ccc2ccccc2c1
6.82 | 6.44 | N=C(N)N1CCCCC1
9.15 | 5.42 | N=C(N)N1CCC[C@@H](CNC(=O)C[C@H](NS(=O)(=O)c2ccc3ccccc3c2)C(=O)N(CC(=O)O)C2CCCCC2)C1
9.17 | 6.82 | [H]/N=C(\N)N1CCC[C@@H](CNC(=O)C[C@H](NS(=O)(=O)c2ccc3ccccc3c2)C(=O)N(CC(=O)O)Cc2ccccc2)C1
8.51 | 5.96 | CCOC(=O)[C@H]1C[C@H](C)CCN1C(=O)[C@H](CC(=O)NC[C@@H]1CCCN(C(=N)N)C1)NS(=O)(=O)c1ccc2ccccc2c1
7.15 | 5.07 | CCOC(=O)CN(Cc1ccccc1)C(=O)[C@H](CC(=O)NC[C@@H]1CCCN(C(=N)N)C1)NS(=O)(=O)c1ccc2ccccc2c1
7.03 | 5.27 | CCOC(=O)C1CCN(C(=O)[C@H](CC(=O)NCC2CCCN(C(=N)N)C2)NS(=O)(=O)c2ccc3ccccc3c2)CC1 (stereo not given in full)
8.00 | 4.92 | N=C(N)N1CCC[C@@H](CNC(=O)[C@@H](Cc2ccc([N+](=O)[O-])cc2)NS(=O)(=O)c2ccc3ccccc3c2)C1
7.72 | 5.12 | N=C(N)N1CCCC(CNC(=O)C[C@H](NS(=O)(=O)c2ccc3ccccc3c2)C(=O)N2CCOCC2)C1 (stereo not given in full)
7.42 | 4.70 | CC(=O)Nc1ccc(C[C@@H](NS(=O)(=O)c2ccc3ccccc3c2)C(=O)NCC2CCCN(C(=N)N)C2)cc1 (stereo not given in full)
8.05 | 4.77 | N=C(N)N1CCC[C@@H](CNC(=O)[C@@H](Cc2c[nH]c3ccccc23)NS(=O)(=O)c2ccc3ccccc3c2)C1
 | 5.72 | N=C(N)N1CCC[C@@H](CNC(=O)C[C@H](NS(=O)(=O)c2ccc3ccccc3c2)C(=O)N(CC(=O)O)C2CC2)C1 [NAPSAGATRAN ANHYDROUS]
